In US10870647B2, “Imidazopyridine derivative, method for preparing same, and pharmaceutical composition containing same as active ingredient for preventing or treating cancer” (DAEGU-GYEONGBUK MEDICAL INNOVATION FOUNDATION, priority 2016, dated 2020):

What was measured:
Assay in all cases: Kinase selectivity, scanMAX Kinase assay panel (DiscoverX), % control at 1 uM
Format in all cases: binding
[1] = target: T1, scanMAX Kinase assay panel (Homo sapiens, UniProt O75385); details: ULK1; 1 uM; read-out: Percent Control (%)
T1 construct: purchased DiscoverX
T1 sequence (O75385 1-1050): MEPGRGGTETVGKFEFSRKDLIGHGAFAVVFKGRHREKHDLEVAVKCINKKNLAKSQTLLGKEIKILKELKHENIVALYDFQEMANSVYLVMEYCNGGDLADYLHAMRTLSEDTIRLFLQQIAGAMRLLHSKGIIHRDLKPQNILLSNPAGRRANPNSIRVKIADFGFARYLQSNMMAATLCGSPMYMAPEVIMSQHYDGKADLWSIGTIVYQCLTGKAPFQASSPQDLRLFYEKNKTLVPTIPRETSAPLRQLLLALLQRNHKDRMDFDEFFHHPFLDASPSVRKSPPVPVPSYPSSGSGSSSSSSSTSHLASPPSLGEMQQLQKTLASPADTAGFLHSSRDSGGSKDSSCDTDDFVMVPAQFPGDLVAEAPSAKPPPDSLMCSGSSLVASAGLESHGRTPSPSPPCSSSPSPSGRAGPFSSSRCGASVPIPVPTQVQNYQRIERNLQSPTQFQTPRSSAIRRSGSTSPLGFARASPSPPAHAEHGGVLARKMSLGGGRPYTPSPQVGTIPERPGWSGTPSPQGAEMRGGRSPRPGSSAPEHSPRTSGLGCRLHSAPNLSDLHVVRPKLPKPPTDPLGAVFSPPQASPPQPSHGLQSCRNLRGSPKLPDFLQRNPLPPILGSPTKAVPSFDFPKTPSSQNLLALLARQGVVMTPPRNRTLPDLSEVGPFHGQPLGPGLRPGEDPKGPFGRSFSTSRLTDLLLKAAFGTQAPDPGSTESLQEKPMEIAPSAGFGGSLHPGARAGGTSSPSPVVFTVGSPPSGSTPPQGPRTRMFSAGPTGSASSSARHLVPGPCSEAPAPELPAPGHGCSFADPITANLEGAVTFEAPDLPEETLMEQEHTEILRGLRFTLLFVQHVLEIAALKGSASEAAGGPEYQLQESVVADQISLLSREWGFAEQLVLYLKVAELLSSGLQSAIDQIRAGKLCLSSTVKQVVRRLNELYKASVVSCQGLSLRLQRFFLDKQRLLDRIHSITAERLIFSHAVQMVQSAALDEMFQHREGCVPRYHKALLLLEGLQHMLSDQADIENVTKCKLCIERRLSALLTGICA
How it was run: (§1)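 Compounds were tested at 1 uM in DMSO against each enzyme in the panel. Percent control was calculated as (compound − positive control)/(negative control − positive control) × 100, and a compound was scored active on a kinase when this value fell below 35.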

[2] = target: T2, scanMAX Kinase assay panel (Homo sapiens, UniProt Q16566); details: CAMK4; 1 uM; read-out: Percent Control (%)
T2 construct: purchased DiscoverX
T2 sequence (Q16566 1-473): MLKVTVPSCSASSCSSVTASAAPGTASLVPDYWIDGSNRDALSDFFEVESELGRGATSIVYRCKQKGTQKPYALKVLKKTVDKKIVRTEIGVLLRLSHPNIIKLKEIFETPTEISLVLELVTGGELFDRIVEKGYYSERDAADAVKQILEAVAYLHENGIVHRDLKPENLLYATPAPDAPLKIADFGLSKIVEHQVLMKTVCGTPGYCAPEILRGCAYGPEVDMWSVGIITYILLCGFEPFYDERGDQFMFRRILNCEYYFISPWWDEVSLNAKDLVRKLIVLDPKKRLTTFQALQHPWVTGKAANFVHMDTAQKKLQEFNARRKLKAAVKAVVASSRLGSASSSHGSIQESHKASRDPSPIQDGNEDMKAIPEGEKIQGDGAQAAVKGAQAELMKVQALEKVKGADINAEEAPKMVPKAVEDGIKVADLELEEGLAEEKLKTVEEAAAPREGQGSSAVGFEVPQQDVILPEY
How it was run: as §1

[3] = target: T3, scanMAX Kinase assay panel (Homo sapiens, UniProt Q2M2I8); details: AAK1; 1 uM; read-out: Percent Control (%)
T3 construct: purchased DiscoverX
How it was run: as §1

[4] = target: T4, scanMAX Kinase assay panel (Homo sapiens, UniProt Q13555); details: CAMK2G; 1 uM; read-out: Percent Control (%)
T4 construct: purchased DiscoverX
How it was run: as §1

[5] = target: T5, scanMAX Kinase assay panel (Homo sapiens, UniProt Q99759); details: MAP3K3; 1 uM; read-out: Percent Control (%)
T5 construct: purchased DiscoverX
T5 sequence (Q99759 1-626): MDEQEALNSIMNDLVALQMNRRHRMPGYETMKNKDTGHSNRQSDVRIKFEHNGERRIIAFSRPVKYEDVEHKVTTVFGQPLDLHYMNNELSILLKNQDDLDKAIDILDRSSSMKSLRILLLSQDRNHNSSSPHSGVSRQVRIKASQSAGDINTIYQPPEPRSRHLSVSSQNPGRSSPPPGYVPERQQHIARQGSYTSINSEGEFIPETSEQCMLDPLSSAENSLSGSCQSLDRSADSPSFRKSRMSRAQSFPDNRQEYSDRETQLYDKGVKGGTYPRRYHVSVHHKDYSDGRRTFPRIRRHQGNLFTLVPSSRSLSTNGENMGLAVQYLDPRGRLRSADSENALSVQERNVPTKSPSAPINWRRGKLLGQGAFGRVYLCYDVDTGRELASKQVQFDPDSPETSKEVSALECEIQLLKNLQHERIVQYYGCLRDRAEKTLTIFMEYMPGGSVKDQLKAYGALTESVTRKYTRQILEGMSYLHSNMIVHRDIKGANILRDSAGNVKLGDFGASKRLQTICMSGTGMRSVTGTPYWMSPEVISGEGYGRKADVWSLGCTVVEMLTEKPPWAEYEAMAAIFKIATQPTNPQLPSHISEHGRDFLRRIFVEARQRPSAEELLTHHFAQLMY
How it was run: as §1

T3 sequence (Q2M2I8 whole entry): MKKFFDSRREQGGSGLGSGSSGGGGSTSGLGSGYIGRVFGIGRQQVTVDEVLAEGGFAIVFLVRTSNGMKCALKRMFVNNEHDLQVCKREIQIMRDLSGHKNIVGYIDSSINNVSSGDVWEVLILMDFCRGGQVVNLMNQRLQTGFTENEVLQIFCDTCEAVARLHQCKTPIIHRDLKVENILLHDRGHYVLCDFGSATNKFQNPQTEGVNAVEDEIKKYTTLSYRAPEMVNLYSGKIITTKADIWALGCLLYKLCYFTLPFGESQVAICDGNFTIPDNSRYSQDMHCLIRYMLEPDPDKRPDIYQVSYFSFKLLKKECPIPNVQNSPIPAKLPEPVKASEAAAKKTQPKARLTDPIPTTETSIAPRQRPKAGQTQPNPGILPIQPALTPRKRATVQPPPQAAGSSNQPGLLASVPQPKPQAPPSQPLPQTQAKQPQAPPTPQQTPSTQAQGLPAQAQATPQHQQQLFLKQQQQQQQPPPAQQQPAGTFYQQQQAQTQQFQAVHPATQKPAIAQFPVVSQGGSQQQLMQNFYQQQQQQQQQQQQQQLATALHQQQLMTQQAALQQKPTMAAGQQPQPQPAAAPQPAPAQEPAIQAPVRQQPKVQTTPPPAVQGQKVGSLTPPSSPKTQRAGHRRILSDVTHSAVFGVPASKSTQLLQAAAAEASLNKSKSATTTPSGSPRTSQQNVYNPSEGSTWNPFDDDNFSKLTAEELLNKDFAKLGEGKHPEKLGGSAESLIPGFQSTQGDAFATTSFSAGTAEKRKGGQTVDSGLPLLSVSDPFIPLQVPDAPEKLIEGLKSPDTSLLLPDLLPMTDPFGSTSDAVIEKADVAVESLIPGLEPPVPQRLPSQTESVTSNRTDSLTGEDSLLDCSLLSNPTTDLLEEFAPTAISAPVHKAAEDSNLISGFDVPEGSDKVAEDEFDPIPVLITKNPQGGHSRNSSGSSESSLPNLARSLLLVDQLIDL
T4 sequence (Q13555 whole entry): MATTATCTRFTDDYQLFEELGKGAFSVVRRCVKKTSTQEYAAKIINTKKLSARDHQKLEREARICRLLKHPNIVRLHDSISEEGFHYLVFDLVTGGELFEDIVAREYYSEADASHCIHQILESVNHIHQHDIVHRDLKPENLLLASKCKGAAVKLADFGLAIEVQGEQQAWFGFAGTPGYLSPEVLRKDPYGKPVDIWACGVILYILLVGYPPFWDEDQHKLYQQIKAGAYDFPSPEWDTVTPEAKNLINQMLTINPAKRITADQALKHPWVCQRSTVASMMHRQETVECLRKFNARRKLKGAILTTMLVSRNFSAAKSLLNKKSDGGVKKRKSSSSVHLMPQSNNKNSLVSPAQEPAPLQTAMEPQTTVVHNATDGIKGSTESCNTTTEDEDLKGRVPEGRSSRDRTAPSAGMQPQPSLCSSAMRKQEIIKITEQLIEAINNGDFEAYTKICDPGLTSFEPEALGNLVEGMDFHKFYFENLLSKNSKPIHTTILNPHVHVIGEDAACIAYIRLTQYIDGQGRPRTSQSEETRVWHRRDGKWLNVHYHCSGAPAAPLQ

Cc1ccc(C(=O)Nc2ccc(CN3CCN(C)CC3)c(C(F)(F)F)c2)cc1C#Cc1cnc2c(Nc3cnn(C)c3)cccn12 [Example 1, 4-methyl-3-((8-((1-methyl-1H-pyrazol-4-yl)amino)imidazo[1,2-a]pyridin-3-yl)ethynyl)-N-(4-((4-methylpiperazin-1-yl)methyl)-3-(trifluoromethyl)phenyl)benzamide]
remaining binding at 1 µM [1]: 68% | remaining binding at 1 µM [2]: 99% | remaining binding at 1 µM [3]: 64% | remaining binding at 1 µM [4]: 73% | remaining binding at 1 µM [5]: 0%

Cc1cn(-c2cc(NC(=O)c3ccc(C)c(C#Cc4cnc5c(Nc6cnn(C)c6)cccn45)c3)cc(C(F)(F)F)c2)cn1 [Example 12, 4-methyl-N-(3-(4-methyl-1H-imidazol-1-yl)-5-(trifluoromethyl)phenyl)-3-((8-((1-methyl-1H-pyrazol-4-yl)amino)imidazo[1,2-a]pyridin-3-yl)ethynyl)benzamide]
remaining binding at 1 µM [1]: 100% | remaining binding at 1 µM [2]: 87% | remaining binding at 1 µM [3]: 85% | remaining binding at 1 µM [4]: 80% | remaining binding at 1 µM [5]: 33%

Cc1ccc(NC(=O)C2(C(=O)Nc3ccc(F)cc3)CC2)cc1C#Cc1cnc2c(Nc3cnn(C(C)C)c3)cccn12 [Example 78]
remaining binding at 1 µM [1]: 100% | remaining binding at 1 µM [2]: 100% | remaining binding at 1 µM [3]: 100% | remaining binding at 1 µM [4]: 100% | remaining binding at 1 µM [5]: 77%
